Assay results taken from US6620961B1, “Biarylalkylenecarbamic acid derivatives and bacteriocides for agricultural and horticultural use” (Kumiai Chemical Industry Co., Ltd., priority 1997, dated 2003).

How the values were obtained:
Venturia inaequalis = assay: Test for Preventive Effect on Apple Scab; format: in vivo; design: key: A: No diseased area; B: Diseased area of less than 25%; C: Diseased area of at least 25% but less than 50%; Diseased area of at least 50%; conditions: 14 days after inoculation; for Evaluation (diseased area of the upper two inoculated leaves): apple seedlings (Kogyoku), 500 ppm active ingredient, 20 ml per pot; for Evaluation (diseased areas of the upper two of the inoculated leaves): apple seedlings, wettable powder at 500 ppm active ingredient, preventive
Protocol: [table] Test for Preventive Effect on Apple Scab 5 apple seeds (variety: Kogyoku) were sown in each 9 cm×9 cm polyvinyl chloride pot and grown in a greenhouse for 20 days. […] Then, the seedlings were inoculated with Venturia inaequalis spores in suspension by spraying and immediately placed in a moist chamber at 22° C. for 48 hours. Thereafter, the seedlings were placed in a greenhouse for development of the disease. 14 days after the inoculation, the diseased areas of the upper two of the inoculated leaves were observed and evaluated on the basis of the standards shown in Table 59.

Erysiphe graminis = assay: Test for Preventive Effect on Wheat Powdery Mildew; format: in vivo; design: key: A: No diseased area; B: Diseased area of less than 25%; C: Diseased area of at least 25% but less than 50%; Diseased area of at least 50%; conditions: wheat seedlings (Norin-61-go), 500 ppm active ingredient, 10 ml per pot, 10 days after inoculation
Protocol: [table] Test for Preventive Effect on Wheat Powdery Mildew 9 wheat seeds (variety: […] Then, the seedlings were inoculated with […] graminis spores in suspension and placed in a greenhouse at 25 to 30° C. 10 days after the inoculation, the total diseases area of the first leaves in each pot was observed and evaluated on the basis of the standards shown in Table 59. The results are shown in Tables 67 to 71.

SMILES	Evaluation (diseased area of the upper two inoculated leaves) (Venturia inaequalis)	Evaluation (total diseased area of the first leaves in each pot) (Erysiphe graminis)	Evaluation (diseased areas of the upper two of the inoculated leaves) (Venturia inaequalis)
COC(=O)NC(C)c1cccc(-c2ccc(C)cc2)c1 (racemic) [3-7]	A	A	
COC(=O)NC(C)c1cccc(-c2ccc(C(F)(F)F)cc2)c1 (racemic) [3-17]	A	A	
COC(=O)NC(C)c1cccc(-c2ccc(Cl)cc2Cl)c1 (racemic) [3-18]	A	A	
COC(=O)NC(C)c1cc(-c2ccccc2)ccc1F (racemic) [3-26]	A	B (Diseased area of less than 25%)	
COC(=O)NC(C)c1cc(-c2ccc(C)cc2)ccc1F (racemic) [3-32]	B (Diseased area of less than 25%)	B (Diseased area of less than 25%)	
CCC(NC(=O)OC)c1cccc(-c2ccccc2)c1 (racemic) [3-101]		B (Diseased area of less than 25%)	
CCC(NC(=O)OC)c1cccc(-c2ccc(Cl)cc2)c1 (racemic) [3-105]		B (Diseased area of less than 25%)	
CCC(NC(=O)OC)c1cccc(-c2ccc(C)cc2)c1 (racemic) [3-107]	B (Diseased area of less than 25%)	B (Diseased area of less than 25%)	
COC(=O)NCc1cccc(-c2ccccc2Cl)c1 [1-2]		A	A
COC(=O)NCc1cccc(-c2cccc(F)c2)c1 [1-6]		A	A
COC(=O)NCc1cccc(-c2ccccc2C)c1 [1-10]		A	A
CCc1cccc(-c2cccc(CNC(=O)OC)c2)c1 [1-13]		A	A
CCc1ccc(-c2cccc(CNC(=O)OC)c2)cc1 [1-14]		B (Diseased area of less than 25%)	A
COC(=O)NCc1cccc(-c2cccc(C(C)C)c2)c1 [1-17]		B (Diseased area of less than 25%)	A
COC(=O)NCc1cccc(-c2ccc(C(C)C)cc2)c1 [1-18]		A	A
COC(=O)NCc1cccc(-c2ccccc2OC)c1 [1-40]		A	A
COC(=O)NCc1cccc(-c2ccc(OC(F)(F)F)cc2)c1 [1-72]		A	A
COC(=O)NCc1cccc(-c2ccc(Cl)cc2Cl)c1 [1-117]			A
COC(=O)NCc1cccc(-c2ccc(F)c(F)c2)c1 [1-120]		A	A
COC(=O)NCc1cccc(-c2ccc(F)c(Cl)c2)c1 [1-122]		A	A
COC(=O)NCc1cccc(-c2ccc(C)c([N+](=O)[O-])c2)c1 [1-137]			A
CCOC(=O)NCc1cccc(-c2ccccc2)c1 [1-146]		B (Diseased area of less than 25%)	B (Diseased area of less than 25%)
CCCCOC(=O)NCc1cccc(-c2ccccc2)c1 [1-148]		B (Diseased area of less than 25%)	
COC(=O)N(C)Cc1cccc(-c2ccccc2)c1 [1-163]		A	A
CCN(Cc1cccc(-c2ccccc2)c1)C(=O)OC [1-165]		B (Diseased area of less than 25%)	A
CCCN(Cc1cccc(-c2ccccc2)c1)C(=O)OC [1-166]		B (Diseased area of less than 25%)	B (Diseased area of less than 25%)

SMILES	Evaluation (diseased area of the upper two inoculated leaves) (Venturia inaequalis)	Evaluation (total diseased area of the first leaves in each pot) (Erysiphe graminis)	Evaluation (diseased areas of the upper two of the inoculated leaves) (Venturia inaequalis)
C=CCN(Cc1cccc(-c2ccccc2)c1)C(=O)OC [1-168]		A	A
C#CCN(Cc1cccc(-c2ccccc2)c1)C(=O)OC [1-178, Methyl N-(3-phenylbenzyl)-N-(2-propynyl)carbamate]		A	A
COCN(Cc1cccc(-c2ccccc2)c1)C(=O)OC [1-192, Methyl N-methoxymethyl-N-(3-phenylbenzyl)carbamate]		A	A
COCN(Cc1cccc(-c2ccccc2C)c1)C(=O)OC [1-193]		B (Diseased area of less than 25%)	A
COCN(Cc1cccc(-c2cccc(C)c2)c1)C(=O)OC [1-194]		A	A
COCN(Cc1cccc(-c2ccc(C)cc2)c1)C(=O)OC [1-195]		A	A
COCN(Cc1cccc(-c2ccc(OC)cc2)c1)C(=O)OC [1-198]		A	A
COCN(Cc1cccc(-c2ccc(F)cc2)c1)C(=O)OC [1-201]		A	A
COCN(Cc1cccc(-c2ccccc2Cl)c1)C(=O)OC [1-202]		A	A
CN(C)C(=O)NCc1cccc(-c2ccccc2)c1 [1-262]			B (Diseased area of less than 25%)
COC(=O)N(Cc1cccc(-c2ccccc2)c1)OC [1-264]		A	A
COC(=O)N(Cc1cccc(-c2cccc(Cl)c2)c1)OC [1-275]		A	A
COC(=O)N(Cc1cccc(-c2cccc(C(F)(F)F)c2)c1)OC [1-277]		A	A
COC(=O)NCc1ccc(F)c(-c2ccccc2)c1 [2-17]		B (Diseased area of less than 25%)	A
COC(=O)NCc1ccc(F)c(-c2ccc(Cl)cc2)c1 [2-21]		B (Diseased area of less than 25%)	A
COC(=O)NCc1ccc(F)c(-c2cccc(C)c2)c1 [2-22]		B (Diseased area of less than 25%)	A
COC(=O)NCc1cc(C)cc(-c2ccc(Cl)cc2)c1 [2-95]		A	A
COC(=O)NCc1cc(C)cc(-c2ccc(C)cc2)c1 [2-97]		A	A
CCc1ccc(-c2ccc(F)c(CNC(=O)OC)c2)cc1 [2-112]		B (Diseased area of less than 25%)	A
COC(=O)NCc1cc(-c2ccc(C(C)C)cc2)ccc1F [2-114]		A	A
COC(=O)NCc1cc(-c2ccc(C(F)(F)F)cc2)ccc1OC [2-344]	A		
COC(=O)NCc1cc(-c2cccc(C(F)(F)F)c2)ccc1OC(F)F [2-365]	A	B (Diseased area of less than 25%)	
COC(=O)NCc1cc(-c2ccc(F)c(F)c2)ccc1F [2-412]	A	A	
COC(=O)NCc1cc(-c2ccc(C(C)=O)cc2)ccc1Cl [2-451]	B (Diseased area of less than 25%)		
COC(=O)NCc1cc(-c2ccc(F)c(F)c2)ccc1Cl [2-461]	A	A	
COC(=O)NCc1cc(-c2ccc(F)c(Cl)c2)ccc1Cl [2-465]	A	A	
